Reference: patent US20050282840A1, “Methods of modulating neurotrophin-mediated activity” (PainCeptor Pharma Corporation, priority 2004, published 2005)
Like-named read-outs stand apart in the source and are kept apart here.

Assays:
[1] = biological target: T1, p75^NTR receptors (PC12 cells) (Rattus norvegicus, UniProt P07174); assay: Basic screening assay: binding of 125I-BDNF to PC12 cells; settings: read-out: BDNF Activity % Maximal Binding
T1 construct: endogenous in cells; host or cells: PC12 cells
T1 sequence (P07174 30-425): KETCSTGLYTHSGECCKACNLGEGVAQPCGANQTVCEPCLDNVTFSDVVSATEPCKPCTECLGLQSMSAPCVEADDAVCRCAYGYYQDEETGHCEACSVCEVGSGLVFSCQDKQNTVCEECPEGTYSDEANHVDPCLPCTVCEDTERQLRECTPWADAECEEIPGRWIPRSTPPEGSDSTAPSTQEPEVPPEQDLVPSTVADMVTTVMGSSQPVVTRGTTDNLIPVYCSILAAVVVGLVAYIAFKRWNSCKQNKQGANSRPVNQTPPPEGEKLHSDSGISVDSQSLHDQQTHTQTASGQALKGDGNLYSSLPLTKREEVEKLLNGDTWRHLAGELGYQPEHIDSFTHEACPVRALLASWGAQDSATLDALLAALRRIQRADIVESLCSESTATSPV
T1 sequence (P23560 129-247 partner): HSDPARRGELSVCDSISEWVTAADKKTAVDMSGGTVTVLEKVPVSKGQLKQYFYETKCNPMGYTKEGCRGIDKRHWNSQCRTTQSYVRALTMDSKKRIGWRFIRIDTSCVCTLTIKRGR
Outline: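 4×10^6 PC12 cells incubated 2 h at 4° C, rotating, with 0.5 nM ^125I-BDNF (final) and compound at 50 μM, in duplicate or more. Bound ligand separated through 10% glycerol by centrifugation and counted by gamma counter; specific binding is Bmax minus NSB; inhibitors followed up for EC50.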

[2] = tested on: p75^NTR receptors (PC12 cells); assay: Basic screening assay: binding of 125I-NGF to PC12 cells; settings: test compound 50 μM, 0.5 nM 125I-NGF, PC12 cells, 2 h at 4° C., specific binding as percent of control
Outline: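 PC12 cells (4×10^6) incubated 2 h at 4° C with 0.5 nM 125I-NGF and test compound at 50 μM, rotating. Bound tracer pelleted through 10% glycerol and gamma-counted; specific binding expressed as percent of control after NSB subtraction.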

[3] = Table 4, test compound 50 μM, 0.5 nM 125I-BDNF, PC12 cells, 2 h at 4° C., specific binding as percent of control
[4] = Table 1, test compound 50 μM, 0.5 nM 125I-BDNF, PC12 cells, 2 h at 4° C., specific binding as percent of control
[5] = Table 2, test compound 50 μM, 0.5 nM 125I-BDNF, PC12 cells, 2 h at 4° C., specific binding as percent of control

For `COc1cc([N+](=O)[O-])ccc1-c1ccc(/C=C2/NC(=O)N(Cc3ccccc3F)C2=O)o1` [Compound 133, 3-(2-Fluorobenzyl)-5-[5-(2-methoxy-4-nitrophenyl)furan-2-ylmethylene]-imidazolidine-2,4-dione], the activity at 50 µM [1, 3] was greater than 50% and the “NGF Activity % Maximal Binding” value ([2]; Table 4) was “* (50 < *)”.

In the case of `Cc1cc([N+](=O)[O-])ccc1-c1ccc(/C=C2\NC(=O)N(Cc3ccccc3F)C2=O)o1` [Compound 131, 3-(2-Fluorobenzyl)-5-[5-(2-methyl-4-nitrophenyl)furan-2-ylmethylene]-imidazolidine-2,4-dione], the activity at 50 µM [1, 3] is reported as greater than 50% and the “NGF Activity % Maximal Binding” value ([2]; Table 4) is reported as “* (50 < *)”.

`COc1ccc(-c2ccc(C=C3C(=O)N(C)C(=O)N(C)C3=O)o2)cc1[N+](=O)[O-]` [Compound 31, 5-[5-(4-Methoxy-3-nitrophenyl)furan-2-ylmethylene]-1,3-dimethyl-pyrimidine-2,4,6-trione] was tested, and the activity at 50 µM [1] was 10 to 20% and the “NGF Activity % Maximal Binding” value ([2]; Table 1) was “* (50 < *)”.

In the case of `COC(=O)C(C)N1C(=O)S/C(=C/c2ccc(-c3ccc(C)c([N+](=O)[O-])c3)o2)C1=O` (stereo not shown) [Compound 64, 2-{5-[5-(4-Methyl-3-nitrophenyl)furan-2-ylmethylene]-2,4-dioxo-thiazolidin-3-yl}-propionic acid methyl ester], the activity at 50 µM [1, 4] is reported as 40 to 50% and the “NGF Activity % Maximal Binding” value ([2]; Table 1) is reported as “* (50 < *)”.

For `O=C(O)c1ccc(Cl)c(-c2ccc(/C=C3/NC(=O)N(Cc4ccccc4F)C3=O)o2)c1` [Compound 72, 4-Chloro-3-{5-[1-(2-fluorobenzyl)-2,5-dioxo-imidazolidin-4-ylidenemethyl]furan-2-yl}benzoic acid], the activity at 50 µM [1, 5] was 0 to 10% and the “NGF Activity % Maximal Binding” value ([2]; Table 2) was “X (40 < X < 50)”.

`CN1C(=O)NC(=O)C(=Cc2ccc(-c3cccc([N+](=O)[O-])c3)o2)C1=O` [Compound 78, 1-Methyl-5-[5-(3-nitrophenyl)furan-2-ylmethylene]-pyrimidine-2,4,6-trione] was tested, and the activity at 50 µM [1] was 10 to 20% and the “NGF Activity % Maximal Binding” value ([2]; Table 2) was “X (40 < X < 50)”.

In the case of `Cc1ccc(-c2ccc(/C=C3/SC(=S)N(CC(=O)O)C3=O)o2)cc1[N+](=O)[O-]` [Compound 14, {5-[5-(4-Methyl-3-nitrophenyl)furan-2-ylmethylene]-4-oxo-2-thioxo-thiazolidin-3-yl}-acetic acid], the activity at 50 µM [1, 4] is reported as 0 to 10% and the “NGF Activity % Maximal Binding” value ([2]; Table 1) is reported as “* (50 < *)”.

With `O=C(O)CN1C(=O)C(=Cc2ccc(-c3ccc([N+](=O)[O-])cc3)o2)SC1=S` [Compound 38, {5-[5-(4-Nitrophenyl)furan-2-ylmethylene]-4-oxo-2-thioxo-thiazolidin-3-yl}-acetic acid] the activity at 50 µM [1, 4] was 20 to 30% and the “NGF Activity % Maximal Binding” value ([2]; Table 1) was “* (50 < *)”.

`COc1cc([N+](=O)[O-])ccc1-c1ccc(C=C2C(=O)ON=C2c2ccccc2)o1` [Compound 56, 4-[5-(2-Methoxy-4-nitrophenyl)furan-2-ylmethylene]-3-phenyl-4H-isoxazol-5-one] was tested, and the activity at 50 µM [1, 4] was 40 to 50% and the “NGF Activity % Maximal Binding” value ([2]; Table 1) was “* (50 < *)”.

For `O=C1NC(=Cc2ccc(-c3ccc(Cl)c([N+](=O)[O-])c3)o2)C(=O)N1c1ccccc1` [Compound 127, 5-[5-(4-Chloro-3-nitrophenyl)furan-2-ylmethylene]-3-phenyl-imidazolidine-2,4-dione], the activity at 50 µM [1, 3] was greater than 50% and the “NGF Activity % Maximal Binding” value ([2]; Table 4) was “* (50 < *)”.

With `CCOC(=O)c1ccc(-c2ccc(C=C3C(=O)NC(=S)NC3=O)o2)cc1` [Compound 99, 4-[5-(4,6-Dioxo-2-thioxo-tetrahydro-pyrimidin-5-ylidenemethyl)furan-2-yl]benzoic acid ethyl ester] the activity at 50 µM [1] was greater than 50% and the “NGF Activity % Maximal Binding” value ([2]; Table 4) was “* (50 < *)”.

In the case of `O=C1NC(=O)C(=Cc2ccc(-c3ccc(Cl)c(C(=O)O)c3)o2)C(=O)N1` [Compound 75, 2-Chloro-5-[5-(2,4,6-trioxo-tetrahydro-pyrimidin-5-ylidenemethyl)furan-2-yl]benzoic acid], the activity at 50 µM [1] is reported as 0 to 10% and the “NGF Activity % Maximal Binding” value ([2]; Table 2) is reported as “X (40 < X < 50)”.

With `NS(=O)(=O)c1cccc(-c2ccc(/C=C3/SC(=S)N(CC(=O)O)C3=O)o2)c1` [Compound 74, {4-oxo-5-[5-(3-sulfamoylphenyl)furan-2-ylmethylene]-2-thioxo-thiazolidin-3-yl}-acetic acid] the activity at 50 µM [1, 5] was 0 to 10% and the “NGF Activity % Maximal Binding” value ([2]; Table 2) was “X (40 < X < 50)”.

In the case of `CN1C(=O)NC(=O)C(=Cc2ccc(-c3ccc(C(=O)O)cc3)o2)C1=O` [Compound 17, 4-[5-(1-Methyl-2,4,6-trioxo-tetrahydro-pyrimidin-5-ylidenemethyl)furan-2-yl]benzoic acid], the activity at 50 µM [1] is reported as 0 to 10% and the “NGF Activity % Maximal Binding” value ([2]; Table 1) is reported as “* (50 < *)”.

`Cc1c(-c2ccc(C=C3C(=O)NC(=O)NC3=O)o2)ccc([N+](=O)[O-])c1C` [Compound 81, 5-[5-(2,3-Dimethyl-4-nitrophenyl)furan-2-ylmethylene]-pyrimidine-2,4,6-trione] was tested, and the activity at 50 µM [1] was 20 to 30% and the “NGF Activity % Maximal Binding” value ([2]; Table 2) was “XX (30 < XX < 40)”.

With `O=C1NC(=S)N/C1=C/c1ccc(-c2ccc(C(=O)O)c(Cl)c2)o1` [Compound 108, 2-Chloro-4-[5-(5-oxo-2-thioxo-imidazolidin-4-ylidenemethyl)furan-2-yl]benzoic acid] the activity at 50 µM [1, 3] was greater than 50% and the “NGF Activity % Maximal Binding” value ([2]; Table 4) was “* (50 < *)”.

With `CCOC(=O)CN1C(=O)S/C(=C\c2ccc(-c3ccc(Cl)c([N+](=O)[O-])c3)o2)C1=O` [Compound 113, {5-[5-(4-Chloro-3-nitrophenyl)furan-2-ylmethylene]-2,4-dioxo-thiazolidin-3-yl}-acetic acid ethyl ester] the activity at 50 µM [1, 3] was greater than 50% and the “NGF Activity % Maximal Binding” value ([2]; Table 4) was “* (50 < *)”.

For `CCCSC1=NC(=Cc2ccc(-c3ccc([N+](=O)[O-])cc3Cl)o2)C(=O)S1` [Compound 62, 4-[5-(2-Chloro-4-nitrophenyl)furan-2-ylmethylene]-2-propylsulfanyl-4H-thiazol-5-one], the activity at 50 µM [1, 4] was 40 to 50% and the “NGF Activity % Maximal Binding” value ([2]; Table 1) was “* (50 < *)”.

`COC(=O)c1cccc(-c2ccc(/C=C3/SC(=S)N(CC(=O)O)C3=O)o2)c1` [Compound 69, 3-[5-(3-Carboxymethyl-4-oxo-2-thioxo-thiazolidin-5-ylidenemethyl)furan-2-yl]benzoic acid methyl ester] was tested, and the activity at 50 µM [1, 5] was 0 to 10% and the “NGF Activity % Maximal Binding” value ([2]; Table 2) was “XX (30 < XX < 40)”.

In the case of `Cc1cccc(N2NC(=O)C(=Cc3ccc(-c4ccc(S(N)(=O)=O)cc4)o3)C2=O)c1` [Compound 9, 4-[5-(3,5-Dioxo-1-m-tolyl-pyrazolidin-4-ylidenemethyl)furan-2-yl]benzenesulfonamide], the activity at 50 µM [1, 4] is reported as 0 to 10% and the “NGF Activity % Maximal Binding” value ([2]; Table 1) is reported as “* (50 < *)”.

`CCOC(=O)CN1C(=O)S/C(=C/c2ccc(-c3ccc(C(=O)O)c(Cl)c3)o2)C1=O` [Compound 24, 2-Chloro-4-[5-(3-ethoxycarbonylmethyl-2,4-dioxo-thiazolidin-5-ylidenemethyl)furan-2-yl]benzoic acid] was tested, and the activity at 50 µM [1, 4] was 0 to 10% and the “NGF Activity % Maximal Binding” value ([2]; Table 1) was “* (50 < *)”.

In the case of `Cc1ccc([N+](=O)[O-])cc1-c1ccc(/C=C2/SC(=S)NC2=O)o1` [Compound 2, 5-[5-(2-Methyl-5-nitrophenyl)furan-2-ylmethylene]-2-thioxo-thiazolidin-4-one], the activity at 50 µM [1, 4] is reported as 0 to 10% and the “NGF Activity % Maximal Binding” value ([2]; Table 1) is reported as “* (50 < *)”.

For `COC(=O)c1cc(-c2ccc(/C=C3/NC(=S)NC3=O)o2)ccc1Cl` [Compound 91, 2-Chloro-5-[5-(5-oxo-2-thioxo-imidazolidin-4-ylidenemethyl)furan-2-yl]benzoic acid methyl ester], the activity at 50 µM [1, 3] was greater than 50% and the “NGF Activity % Maximal Binding” value ([2]; Table 4) was “* (50 < *)”.

With `CN1C(=O)NC(=O)/C(=C/c2ccc(-c3cccc(C(=O)O)c3)o2)C1=O` [Compound 77, 3-[5-(1-Methyl-2,4,6-trioxo-tetrahydro-pyrimidin-5-ylidenemethyl)furan-2-yl]benzoic acid] the activity at 50 µM [1] was 10 to 20% and the “NGF Activity % Maximal Binding” value ([2]; Table 2) was “XXX (20 < XXX < 30)”.

With `Cc1cc([N+](=O)[O-])c(C)cc1-c1ccc(C=C2C(=O)NC(=O)NC2=O)o1` [Compound 18, 5-[5-(2,5-Dimethyl-4-nitrophenyl)furan-2-ylmethylene]-pyrimidine-2,4,6-trione] the activity at 50 µM [1] was 0 to 10% and the “NGF Activity % Maximal Binding” value ([2]; Table 1) was “* (50 < *)”.

For `O=C1NC(=S)N/C1=C\c1ccc(-c2cccc([N+](=O)[O-])c2)o1` [Compound 89, 5-[5-(3-Nitrophenyl)furan-2-ylmethylene]-2-thioxo-imidazolidin-4-one], the activity at 50 µM [1, 3] was greater than 50% and the “NGF Activity % Maximal Binding” value ([2]; Table 4) was “* (50 < *)”.
